# Experimental data as given in publication PMC8206089, “Split NanoLuc technology allows quantitation of interactions between PII protein and its receptors with unprecedented sensitivity and reveals transient interactions” (Scientific Reports, 2021).
# Experiments:
# [1] = target: T1, NAGK-SmBiT in complex with PII-LgBiT (ligand on NAGK) (Synechocystis sp. PCC 6803, UniProt P73326); test: NanoBiT luminescence, Arg titration of PII-NAGK complex; assay type: binding; conditions: 2 mM ATP or 1 mM ATP/1 mM ADP; allosteric; pH 7.6, 2 mM MgCl2, 30 °C
# T1 construct: gene argB; hexameric NAGK with N-terminal His6, C-terminal 16-aa linker and SmBiT; PII trimer with C-terminal Strep-tag and LgBiT; both from E. coli Lemo21; with Nitrogen regulatory protein P-II
# T1 sequence (P73326 whole entry): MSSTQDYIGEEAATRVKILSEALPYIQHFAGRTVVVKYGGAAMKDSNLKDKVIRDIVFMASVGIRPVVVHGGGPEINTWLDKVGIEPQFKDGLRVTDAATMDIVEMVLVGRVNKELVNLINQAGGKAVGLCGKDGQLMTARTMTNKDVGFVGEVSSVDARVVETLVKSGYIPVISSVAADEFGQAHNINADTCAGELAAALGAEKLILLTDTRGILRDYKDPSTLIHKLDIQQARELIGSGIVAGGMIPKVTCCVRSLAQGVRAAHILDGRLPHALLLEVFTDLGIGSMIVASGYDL
# T1 sequence (Q55247 whole entry partner): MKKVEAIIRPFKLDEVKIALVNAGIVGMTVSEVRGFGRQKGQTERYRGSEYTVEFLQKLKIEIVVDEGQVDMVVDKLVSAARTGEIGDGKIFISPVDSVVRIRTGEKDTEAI
# [2] = target: T1, NAGK-SmBiT in complex with PII-LgBiT (ligand on NAGK); test: NanoBiT luminescence, stimulation of PII-NAGK complex formation; assay type: binding; conditions: 0-50 mM NAG, 2 mM ATP; 10 pM PII-LgBiT, 5 nM NAGK-SmBiT; pH 7.6, 2 mM MgCl2, 30 °C
SMILES,"NanoBiT luminescence, Arg titration of PII-NAGK complex [1]","NanoBiT luminescence, stimulation of PII-NAGK complex formation [2]"
N=C(N)NCCC[C@H](N)C(=O)O [Arg],arginine was titrated to PII-LgBiT-NAGK-SmBiT complexes and luminescence was recorded,
CC(=O)N[C@@H](CCC(=O)O)C(=O)O [NAG],,increasing NAG concentrations caused a dramatic increase in PII-NAGK interaction
